Source: ChEMBL document CHEMBL1201862, “PubChem BioAssay data set” (2004)
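Cells were grown in 96-well plates and exposed to each compound for 48 hours at five concentrations; endpoints were interpolated linearly between bracketing concentrations, or set to the highest concentration if not reached. At the GI50, growth is halved.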 Calls of active or inactive are those of the source. Cut-off read from the data, not from the text of the source: active = GI50 up to about 1.1 µM and inactive = higher.

Experiments:
Assay in all cases: NCI anticancer screen, dose series, 48 h
UO-31 = tested on: UO-31
K562 = tested on: K562
SR = tested on: SR
CAKI-1 = tested on: CAKI-1
HL-60 = tested on: HL-60
UACC-257 = tested on: UACC-257
RPMI-8226 = tested on: RPMI-8226
OVCAR-5 = tested on: OVCAR-5
ACHN = tested on: ACHN
SF-295 = tested on: SF-295
SK-MEL-2 = tested on: SK-MEL-2
HOP-62 = tested on: HOP-62
KM12 = tested on: KM12
SNB-19 = tested on: SNB-19
MOLT-4 = tested on: MOLT-4
LXFL 529 = tested on: LXFL 529
IGROV-1 = tested on: IGROV-1
SW-620 = tested on: SW-620
SNB-78 = tested on: SNB-78
SF-268 = tested on: SF-268
U-251 = tested on: U-251
HCT-116 = tested on: HCT-116
A498 = tested on: A498
SK-MEL-28 = tested on: SK-MEL-28
OVCAR-4 = tested on: OVCAR-4
COLO 205 = tested on: COLO 205
DMS-273 = tested on: DMS-273
CCRF-CEM = tested on: CCRF-CEM
KM-20L2 = tested on: KM-20L2
NCI-H460 = tested on: NCI-H460
UACC-62 = tested on: UACC-62
NCI-H226 = tested on: NCI-H226
NCI-H522 = tested on: NCI-H522
OVCAR-8 = tested on: OVCAR-8
DMS-114 = tested on: DMS-114
A549 = tested on: A549
LOX IMVI = tested on: LOX IMVI
RXF 631 = tested on: RXF 631
OVCAR-3 = tested on: OVCAR-3
HCT-15 = tested on: HCT-15
786-0 = tested on: 786-0
HCC 2998 = tested on: HCC 2998
HT-29 = tested on: HT-29
NCI-H23 = tested on: NCI-H23
SN12C = tested on: SN12C
M14 = tested on: M14
SF-539 = tested on: SF-539
SK-OV-3 = tested on: SK-OV-3
SNB-75 = tested on: SNB-75
SK-MEL-5 = tested on: SK-MEL-5
DLD-1 = tested on: DLD-1
EKVX = tested on: EKVX
Malme-3M = tested on: Malme-3M
HOP-18 = tested on: HOP-18
HOP-92 = tested on: HOP-92
TK-10 = tested on: TK-10
M19-MEL = tested on: M19-MEL

Measured: GI50

COc1ccc2c(CCNC(=O)/C=C/c3ccccc3)c(C(C)=O)[nH]c2c1[N+](=O)[O-]
inactive: UO-31 31.3 µM | K562 4.49 µM | SR 7.28 µM | CAKI-1 5.28 µM | HL-60 4.31 µM | UACC-257 8.95 µM | RPMI-8226 5.98 µM | OVCAR-5 > 10 µM | ACHN 50.4 µM | SF-295 3.87 µM | SK-MEL-2 17.4 µM | HOP-62 18.8 µM | KM12 7.73 µM | SNB-19 48.6 µM | MOLT-4 5.69 µM | LXFL 529 10 µM | IGROV-1 18.3 µM | SW-620 5.38 µM | SNB-78 40.2 µM | SF-268 4.26 µM | U-251 34.2 µM | HCT-116 13.7 µM | A498 17.3 µM | SK-MEL-28 14.5 µM | OVCAR-4 21.8 µM | COLO 205 8.85 µM | DMS-273 5.64 µM | CCRF-CEM 5.35 µM | KM-20L2 19.1 µM | NCI-H460 6.12 µM | UACC-62 10.2 µM | NCI-H226 20.9 µM | NCI-H522 3.35 µM | OVCAR-8 17.9 µM | DMS-114 13.6 µM | A549 8.05 µM | LOX IMVI 5.64 µM | RXF 631 13.2 µM | OVCAR-3 10.1 µM | 786-0 20.3 µM | HCC 2998 20 µM | HT-29 4.99 µM | NCI-H23 3.78 µM | SN12C 42.4 µM | M14 7.33 µM | SF-539 9.86 µM
6.89 µM: HCT-15

C=Cc1ccc(C)[n+](C[Si](C)(C)O[Si](C)(C)C)c1
> 100 µM: HCT-15
inactive: SK-OV-3 > 100 µM | SNB-75 > 100 µM | UO-31 > 100 µM | K562 > 100 µM | SR > 100 µM | CAKI-1 > 100 µM | UACC-257 > 100 µM | RPMI-8226 > 100 µM | OVCAR-5 > 100 µM | ACHN > 100 µM | SF-295 > 100 µM | SK-MEL-2 > 100 µM | HOP-62 > 100 µM | SK-MEL-5 > 100 µM | KM12 > 100 µM | SNB-19 > 100 µM | MOLT-4 > 100 µM | LXFL 529 > 100 µM | IGROV-1 > 100 µM | DLD-1 > 100 µM | SW-620 > 100 µM | SNB-78 > 100 µM | SF-268 > 100 µM | U-251 > 100 µM | HCT-116 > 100 µM | SK-MEL-28 > 100 µM | OVCAR-4 42.3 µM | COLO 205 > 100 µM | DMS-273 > 100 µM | CCRF-CEM > 100 µM | KM-20L2 > 100 µM | UACC-62 > 100 µM | NCI-H226 > 100 µM | NCI-H522 > 100 µM | OVCAR-8 > 100 µM | DMS-114 > 100 µM | A549 > 100 µM | EKVX > 100 µM | LOX IMVI > 100 µM | RXF 631 > 100 µM | OVCAR-3 > 100 µM | 786-0 > 100 µM | HCC 2998 > 100 µM | HT-29 > 100 µM | NCI-H23 > 100 µM | Malme-3M > 100 µM | SN12C > 100 µM | M14 > 100 µM | SF-539 > 100 µM

OCC1O[C@H](O[C@@H]2CCCN3CC(O)C(O)[C@@H]23)C(O)C(O)C1O (some centres undefined)
inactive: SK-OV-3 > 100 µM | SNB-75 > 100 µM | UO-31 > 100 µM | K562 > 100 µM | SR > 100 µM | CAKI-1 > 100 µM | HOP-18 > 100 µM | HL-60 > 100 µM | UACC-257 > 100 µM | OVCAR-5 > 100 µM | ACHN > 100 µM | SF-295 > 100 µM | SK-MEL-2 > 100 µM | HOP-62 > 100 µM | SK-MEL-5 > 100 µM | KM12 > 100 µM | MOLT-4 > 100 µM | LXFL 529 > 100 µM | IGROV-1 > 100 µM | DLD-1 > 100 µM | SW-620 > 100 µM | SNB-78 > 100 µM | SF-268 > 100 µM | U-251 > 100 µM | HCT-116 > 100 µM | A498 > 100 µM | SK-MEL-28 > 100 µM | OVCAR-4 > 100 µM | COLO 205 > 100 µM | DMS-273 > 100 µM | CCRF-CEM > 100 µM | KM-20L2 > 100 µM | HOP-92 > 100 µM | UACC-62 > 100 µM | NCI-H226 > 100 µM | NCI-H522 > 100 µM | OVCAR-8 > 100 µM | A549 > 100 µM | EKVX > 100 µM | RXF 631 > 100 µM | OVCAR-3 > 100 µM | HCC 2998 > 100 µM | HT-29 > 100 µM | NCI-H23 > 100 µM | Malme-3M > 100 µM | SN12C > 100 µM | M14 > 100 µM | TK-10 > 100 µM | SF-539 > 100 µM | M19-MEL > 100 µM
> 100 µM: HCT-15

CCC(=O)O[C@@H]1C2C(OC(C)=O)C34COC(C)([C@@H]3C3C(C[C@]3(C)OC(C)=O)[C@@H](OC(=O)c3ccccc3)C4=O)[C@H](OC(C)=O)[C@@]2(OC(C)=O)C[C@@H]1C (some centres undefined)
inactive: SK-OV-3 15.7 µM | SNB-75 3.01 µM | UO-31 59.8 µM | K562 > 10 µM | SR 54.1 µM | CAKI-1 > 100 µM | HOP-18 > 100 µM | HL-60 15.6 µM | UACC-257 87.9 µM | RPMI-8226 > 100 µM | OVCAR-5 94.4 µM | ACHN 36.1 µM | SF-295 12.4 µM | SK-MEL-2 79.4 µM | HOP-62 25.1 µM | SK-MEL-5 13.5 µM | KM12 > 100 µM | SNB-19 14 µM | MOLT-4 > 100 µM | LXFL 529 34.9 µM | IGROV-1 13.7 µM | DLD-1 > 100 µM | SW-620 47.8 µM | SNB-78 5.5 µM | SF-268 44.1 µM | U-251 10.4 µM | HCT-116 30.7 µM | SK-MEL-28 > 100 µM | OVCAR-4 21.1 µM | COLO 205 43.5 µM | DMS-273 44.1 µM | CCRF-CEM 17.5 µM | KM-20L2 > 100 µM | NCI-H460 > 100 µM | HOP-92 14.7 µM | UACC-62 75.9 µM | NCI-H226 20 µM | NCI-H522 37.1 µM | OVCAR-8 95.5 µM | DMS-114 23.3 µM | A549 > 100 µM | EKVX 87.1 µM | LOX IMVI 32 µM | RXF 631 86.1 µM | OVCAR-3 21.6 µM | 786-0 11.7 µM | HCC 2998 64.7 µM | HT-29 > 100 µM | NCI-H23 14.9 µM | Malme-3M 36.6 µM | SN12C > 100 µM | M14 33.9 µM | TK-10 15.1 µM | SF-539 14.9 µM | M19-MEL 32.8 µM
16 µM: HCT-15
